Laboratory results reported in ChEMBL document CHEMBL4396916, “Novel potent substituted 4-amino-2-thiopyrimidines as dual VEGFR-2 and BRAF kinase inhibitors” (Eur J Med Chem, 2019).

Assays:
[1] = molecular target: Vascular endothelial growth factor receptor 2 (Homo sapiens, UniProt P35968); assay: Inhibition of human N-terminal GST tagged VEGFR-2 expressed in baculovirus infected Sf9 cells using poly (Glu,Tyr) 4:1 as substrate in presence of ATP by Kinase-Glo luminescence assay
CCRF-CEM = assay: Growth inhibition of human CCRF-CEM cells at 10 uM incubated for 48 hrs by sulforhodamine B assay relative to control; format: functional; settings: read-out: GI
K562 = assay: Growth inhibition of human K562 cells at 10 uM incubated for 48 hrs by sulforhodamine B assay relative to control; format: functional; settings: K562, 48 h, read-out: GI
MOLT-4 = assay: Growth inhibition of human MOLT4 cells at 10 uM incubated for 48 hrs by sulforhodamine B assay relative to control; format: functional; settings: MOLT-4, 48 h, read-out: GI
RPMI-8226 = assay: Growth inhibition of human RPMI8226 cells at 10 uM incubated for 48 hrs by sulforhodamine B assay relative to control; format: functional; settings: RPMI-8226, 48 h, read-out: GI
A549 = assay: Growth inhibition of human A549/ATCC cells at 10 uM incubated for 48 hrs by sulforhodamine B assay relative to control; format: functional; settings: A549, 48 h, read-out: GI
EKVX = assay: Growth inhibition of human EKVX cells at 10 uM incubated for 48 hrs by sulforhodamine B assay relative to control; format: functional; settings: read-out: GI
HOP-62 = assay: Growth inhibition of human HOP62 cells at 10 uM incubated for 48 hrs by sulforhodamine B assay relative to control; format: functional; settings: HOP-62, 48 h, read-out: GI
HOP-92 = assay: Growth inhibition of human HOP92 cells at 10 uM incubated for 48 hrs by sulforhodamine B assay relative to control; format: functional; settings: HOP-92, 48 h, read-out: GI
NCI-H226 = assay: Growth inhibition of human NCI-H226 cells at 10 uM incubated for 48 hrs by sulforhodamine B assay relative to control; format: functional; settings: NCI-H226, 48 h, read-out: GI
NCI-H23 = assay: Growth inhibition of human NCI-H23 cells at 10 uM incubated for 48 hrs by sulforhodamine B assay relative to control; format: functional; settings: NCI-H23, 48 h, read-out: GI
NCI-H522 = assay: Growth inhibition of human NCI-H522 cells at 10 uM incubated for 48 hrs by sulforhodamine B assay relative to control; format: functional; settings: NCI-H522, 48 h, read-out: GI
HCT-116 = assay: Growth inhibition of human HCT116 cells at 10 uM incubated for 48 hrs by sulforhodamine B assay relative to control; format: functional; settings: HCT-116, 48 h, read-out: GI
HCT-15 = assay: Growth inhibition of human HCT15 cells at 10 uM incubated for 48 hrs by sulforhodamine B assay relative to control; format: functional; settings: HCT-15, 48 h, read-out: GI
SF-539 = assay: Growth inhibition of human SF539 cells at 10 uM incubated for 48 hrs by sulforhodamine B assay relative to control; format: functional; settings: SF-539, 48 h, read-out: GI
Malme-3M = assay: Growth inhibition of human MALME-3M cells at 10 uM incubated for 48 hrs by sulforhodamine B assay relative to control; format: functional; settings: read-out: GI
UACC-62 = assay: Growth inhibition of human UACC62 cells at 10 uM incubated for 48 hrs by sulforhodamine B assay relative to control; format: functional; settings: UACC-62, 48 h, read-out: GI
IGROV-1 = assay: Growth inhibition of human IGROV1 cells at 10 uM incubated for 48 hrs by sulforhodamine B assay relative to control; format: functional; settings: IGROV-1, 48 h, read-out: GI
OVCAR-4 = assay: Growth inhibition of human OVCAR4 cells at 10 uM incubated for 48 hrs by sulforhodamine B assay relative to control; format: functional; settings: OVCAR-4, 48 h, read-out: GI
OVCAR-5 = assay: Growth inhibition of human OVCAR5 cells at 10 uM incubated for 48 hrs by sulforhodamine B assay relative to control; format: functional; settings: OVCAR-5, 48 h, read-out: GI
NCI/ADR-RES = assay: Growth inhibition of human NCI/ADR-RES cells at 10 uM incubated for 48 hrs by sulforhodamine B assay relative to control; format: functional; settings: read-out: GI
SK-OV-3 = assay: Growth inhibition of human SKOV3 cells at 10 uM incubated for 48 hrs by sulforhodamine B assay relative to control; format: functional; settings: SK-OV-3, 48 h, read-out: GI
A498 = assay: Growth inhibition of human A498 cells at 10 uM incubated for 48 hrs by sulforhodamine B assay relative to control; format: functional; settings: A498, 48 h, read-out: GI
ACHN = assay: Growth inhibition of human ACHN cells at 10 uM incubated for 48 hrs by sulforhodamine B assay relative to control; format: functional; settings: read-out: GI
CAKI-1 = assay: Growth inhibition of human Caki1 cells at 10 uM incubated for 48 hrs by sulforhodamine B assay relative to control; format: functional; settings: CAKI-1, 48 h, read-out: GI
SN12C = assay: Growth inhibition of human SN12C cells at 10 uM incubated for 48 hrs by sulforhodamine B assay relative to control; format: functional; settings: read-out: GI
UO-31 = assay: Growth inhibition of human UO31 cells at 10 uM incubated for 48 hrs by sulforhodamine B assay relative to control; format: functional; settings: UO-31, 48 h, read-out: GI
PC-3 = assay: Growth inhibition of human PC3 cells at 10 uM incubated for 48 hrs by sulforhodamine B assay relative to control; format: functional; settings: PC-3, 48 h, read-out: GI
MCF7 [2] = assay: Growth inhibition of human MCF7 cells at 10 uM incubated for 48 hrs by sulforhodamine B assay relative to control; format: functional; settings: MCF7, 48 h, read-out: GI
MDA-MB-231 = assay: Growth inhibition of human MDA-MB-231 cells at 10 uM incubated for 48 hrs by sulforhodamine B assay relative to control; format: functional; settings: MDA-MB-231, 48 h, read-out: GI
Hs-578T = assay: Growth inhibition of human Hs578T cells at 10 uM incubated for 48 hrs by sulforhodamine B assay relative to control; format: functional; settings: read-out: GI
T47D [3] = assay: Growth inhibition of human T47D cells at 10 uM incubated for 48 hrs by sulforhodamine B assay relative to control; format: functional; settings: read-out: GI
MDA-MB-468 = assay: Growth inhibition of human MDA-MB-468 cells at 10 uM incubated for 48 hrs by sulforhodamine B assay relative to control; format: functional; settings: MDA-MB-468, 48 h, read-out: GI
MCF7 [4] = assay: Cytotoxicity against human MCF7 cells expressing VEGFR2 and wild type BRAF measured after 48 hrs by sulforhodamine B assay; format: functional, cell-based; settings: MCF7, 48 h
T47D [5] = assay: Cytotoxicity against human T47D cells expressing wild type BRAF measured after 48 hrs by sulforhodamine B assay; format: functional, cell-based
MCF7 [6] = assay: Inhibition of VEGFR2 level in human MCF7 cells at 10 uM measured after 48 hrs by ELISA relative to control; format: functional; settings: MCF7, 48 h

Chain of Vascular endothelial growth factor receptor 2 (P35968 whole entry): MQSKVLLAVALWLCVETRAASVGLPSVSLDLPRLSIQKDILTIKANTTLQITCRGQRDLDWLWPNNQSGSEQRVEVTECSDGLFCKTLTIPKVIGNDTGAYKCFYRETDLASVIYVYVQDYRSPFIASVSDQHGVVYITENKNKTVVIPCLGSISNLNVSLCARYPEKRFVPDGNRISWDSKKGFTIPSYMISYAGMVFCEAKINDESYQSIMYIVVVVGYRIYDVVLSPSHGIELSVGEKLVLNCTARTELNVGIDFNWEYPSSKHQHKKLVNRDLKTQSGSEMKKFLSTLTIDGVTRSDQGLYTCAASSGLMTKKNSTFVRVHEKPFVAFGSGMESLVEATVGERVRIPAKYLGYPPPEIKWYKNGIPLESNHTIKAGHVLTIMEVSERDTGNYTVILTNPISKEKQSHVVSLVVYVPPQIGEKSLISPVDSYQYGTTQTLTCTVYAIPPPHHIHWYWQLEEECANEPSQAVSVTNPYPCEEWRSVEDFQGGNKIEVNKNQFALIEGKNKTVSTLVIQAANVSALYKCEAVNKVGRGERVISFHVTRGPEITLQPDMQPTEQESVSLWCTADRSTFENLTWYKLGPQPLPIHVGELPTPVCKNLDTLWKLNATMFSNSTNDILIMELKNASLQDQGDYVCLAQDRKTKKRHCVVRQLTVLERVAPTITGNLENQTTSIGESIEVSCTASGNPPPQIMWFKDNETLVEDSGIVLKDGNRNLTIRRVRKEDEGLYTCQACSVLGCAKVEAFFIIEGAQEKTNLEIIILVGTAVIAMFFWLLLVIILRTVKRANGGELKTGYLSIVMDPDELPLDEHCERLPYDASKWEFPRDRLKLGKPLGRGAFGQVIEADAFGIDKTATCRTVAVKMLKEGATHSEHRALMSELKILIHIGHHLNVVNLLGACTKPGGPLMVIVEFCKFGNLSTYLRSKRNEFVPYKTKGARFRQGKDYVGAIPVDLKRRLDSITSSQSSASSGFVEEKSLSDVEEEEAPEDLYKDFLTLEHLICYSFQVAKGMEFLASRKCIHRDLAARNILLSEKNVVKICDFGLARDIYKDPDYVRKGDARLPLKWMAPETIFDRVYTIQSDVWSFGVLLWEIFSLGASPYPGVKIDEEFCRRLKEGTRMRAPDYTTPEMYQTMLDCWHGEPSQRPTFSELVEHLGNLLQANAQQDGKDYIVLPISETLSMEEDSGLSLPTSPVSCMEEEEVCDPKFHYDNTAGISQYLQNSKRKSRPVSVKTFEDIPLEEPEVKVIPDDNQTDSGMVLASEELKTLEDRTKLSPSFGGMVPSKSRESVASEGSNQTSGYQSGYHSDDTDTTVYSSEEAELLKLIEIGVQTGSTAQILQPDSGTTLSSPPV

## CC(=O)c1cccc(Nc2ccnc(SCC(=O)c3ccc(-c4ccccc4)cc3)n2)c1
[1]
  IC50: 0.74 µM
CCRF-CEM
  inhibition of growth at 10 µM: 28%
K562
  inhibition of growth at 10 µM: 16%
MOLT-4
  inhibition of growth at 10 µM: 29%
RPMI-8226
  inhibition of growth at 10 µM: 34%
A549
  inhibition of growth at 10 µM: 14%
EKVX
  inhibition of growth at 10 µM: 15%
HOP-62
  inhibition of growth at 10 µM: 19%
HOP-92
  inhibition of growth at 10 µM: 17%
NCI-H226
  inhibition of growth at 10 µM: 22%
NCI-H23
  inhibition of growth at 10 µM: 18%
NCI-H522
  inhibition of growth at 10 µM: 38%
HCT-116
  inhibition of growth at 10 µM: 14%
HCT-15
  inhibition of growth at 10 µM: 15%
SF-539
  inhibition of growth at 10 µM: 11%
Malme-3M
  inhibition of growth at 10 µM: 17%
UACC-62
  inhibition of growth at 10 µM: 24%
IGROV-1
  inhibition of growth at 10 µM: 20%
OVCAR-4
  inhibition of growth at 10 µM: 12%
OVCAR-5
  inhibition of growth at 10 µM: 12%
NCI/ADR-RES
  inhibition of growth at 10 µM: 14%
SK-OV-3
  inhibition of growth at 10 µM: 22%
A498
  inhibition of growth at 10 µM: 40%
ACHN
  inhibition of growth at 10 µM: 12%
CAKI-1
  inhibition of growth at 10 µM: 23%
SN12C
  inhibition of growth at 10 µM: 13%
UO-31
  inhibition of growth at 10 µM: 40%
PC-3
  inhibition of growth at 10 µM: 25%
MCF7 [2]
  inhibition of growth at 10 µM: 12%
MDA-MB-231
  inhibition of growth at 10 µM: 41%
Hs-578T
  inhibition of growth at 10 µM: 14%
T47D [3]
  inhibition of growth at 10 µM: 49%
MDA-MB-468
  inhibition of growth at 10 µM: 14%
MCF7 [4]
  IC50: 24.4 µM
T47D [5]
  IC50: 12.1 µM
MCF7 [6]
  inhibition at 10 µM: 36%
